# Measurements: patent US10577363B2, “Substituted piperidine compounds” (EPIZYME, INC., priority 2014, dated 2020)
# Tests used:
# SMYD3 [1] = target: T1, SMYD3 (Homo sapiens (Human), UniProt Q9H7B4); assay: SMYD3 biochemical assay (SPA, 3H-SAM methylation of MEKK2 protein substrate); settings: Table 2A; read-out: SMYD3 Biochem IC50
# Summary of the method: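 Tritium incorporation into GST-MEKK2 is counted by scintillation proximity after citric acid bead capture. Native human SMYD3 is preincubated with test compound for 30 min at room temperature at pH 8.0 (Tris-Cl, TCEP, BSG, Tween 20) before 3H-SAM and substrate are added; cold SAM at 100 uM final stops turnover.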
# SMYD3 [2] = target: T1, SMYD3; assay: SMYD3 cell assay (Trimethyl-MEKK2 In-Cell Western in 293T/17 cells); assay type: cell-based; settings: Table 2A; read-out: SMYD3 Cell IC50
# Summary of the method: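 In-Cell Western ratio of trimethyl-Lys260 MEKK2 to anti-flag signal; percent inhibition from DMSO and maximum-inhibition controls, IC50 by non-linear regression, triplicates.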
# T1 sequence (Q9H7B4 whole entry): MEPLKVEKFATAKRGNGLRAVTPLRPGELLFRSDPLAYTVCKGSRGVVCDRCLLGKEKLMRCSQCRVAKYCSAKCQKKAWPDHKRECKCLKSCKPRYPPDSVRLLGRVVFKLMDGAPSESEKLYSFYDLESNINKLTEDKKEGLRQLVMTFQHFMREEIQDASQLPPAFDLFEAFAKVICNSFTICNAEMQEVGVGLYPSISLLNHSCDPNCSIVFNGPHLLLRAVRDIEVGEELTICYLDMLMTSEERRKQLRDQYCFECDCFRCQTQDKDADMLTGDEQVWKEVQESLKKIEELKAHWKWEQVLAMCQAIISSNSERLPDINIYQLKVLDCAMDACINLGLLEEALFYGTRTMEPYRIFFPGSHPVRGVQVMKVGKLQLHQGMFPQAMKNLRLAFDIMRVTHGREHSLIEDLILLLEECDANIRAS
Compound,IC50 (SMYD3 [1]),IC50 (SMYD3 [2])
"C[C@H]1C[C@@H](NC(=O)c2cc(C3CC3)on2)CCN1S(=O)(=O)N1CC2CC1CN2 (stereo partly drawn) [compound 570, N-((2S,4S)-1-((2,5-diazabicyclo[2.2.1]heptan-2-yl)sulfonyl)-2-methylpiperidin-4-yl)-5-cyclopropylisoxazole-3-carboxamide]",6.7 nM,83.9 nM
"O=C(N[C@H]1C[C@H]2CC[C@@H](C1)N2S(=O)(=O)N1CC2CC(C1)N2)c1cc(C2CC2)on1 [compound 571, N-((1R,3r,5S)-8-((3,6-diazabicyclo[3.1.1]heptan-3-yl)sulfonyl)-8-azabicyclo[3.2.1]octan-3-yl)-5-cyclopropylisoxazole-3-carboxamide]",7.5 nM,99.2 nM
"C[C@H]1CN(S(=O)(=O)N2CC[C@H](NC(=O)c3cc(C4CC4)on3)C[C@@H]2C)CCN1 [compound 572, 5-cyclopropyl-N-((2S,4S)-2-methyl-1-(((S)-3-methylpiperazin-1-yl)sulfonyl)piperidin-4-yl)isoxazole-3-carboxamide]",7.8 nM,53.6 nM
"C[C@@H]1C[C@H](NC(=O)c2cc(C3CC3)on2)CCN1S(=O)(=O)CC1CCN(Cc2ccccc2)CC1 [compound 573, N-((2R,4R)-1-(((1-benzylpiperidin-4-yl)methyl)sulfonyl)-2-methylpiperidin-4-yl)-5-cyclopropylisoxazole-3-carboxamide]",8 nM,293 nM
"C[C@H]1C[C@@H](NC(=O)c2cc(C3CC3)on2)CCN1S(=O)(=O)C1CCN(C)CC1 [compound 574, 5-cyclopropyl-N-((2S,4S)-2-methyl-1-((1-methylpiperidin-4-yl)sulfonyl)piperidin-4-yl)isoxazole-3-carboxamide]",8 nM,105 nM
"O=C(N[C@H]1C[C@H]2CC[C@@H](C1)N2S(=O)(=O)C[C@H]1CCCNC1)c1cc(C2CC2)on1 [compound 575, 5-cyclopropyl-N-((1R,3S,5S)-8-((((S)-piperidin-3-yl)methyl)sulfonyl)-8-azabicyclo[3.2.1]octan-3-yl)isoxazole-3-carboxamide]",8 nM,67.4 nM
"C[C@H]1C[C@@H](NC(=O)c2cc(C3CC3)on2)CCN1S(=O)(=O)CCCCN(C)C [compound 576, 5-cyclopropyl-N-((2S,4S)-1-((4-(dimethylamino)butyl)sulfonyl)-2-methylpiperidin-4-yl)isoxazole-3-carboxamide]",8.1 nM,106 nM
"O=C(N[C@H]1C[C@H]2CC[C@@H](C1)N2S(=O)(=O)N1CC2(CNC2)C1)c1cc(C2CC2)on1 [compound 580, N-((1R,3r,5S)-8-((2,6-diazaspiro[3.3]heptan-2-yl)sulfonyl)-8-azabicyclo[3.2.1]octan-3-yl)-5-cyclopropylisoxazole-3-carboxamide]",9.7 nM,88.9 nM
"CN1C2CC1CN(S(=O)(=O)N1[C@@H]3CC[C@H]1C[C@@H](NC(=O)c1cc(C4CC4)on1)C3)C2 [compound 582, 5-cyclopropyl-N-((1R,3r,5S)-8-((6-methyl-3,6-diazabicyclo[3.1.1]heptan-3-yl)sulfonyl)-8-azabicyclo[3.2.1]octan-3-yl)isoxazole-3-carboxamide]",10.1 nM,151 nM
"CN(CCN)CCCS(=O)(=O)N1[C@@H]2CC[C@H]1C[C@@H](NC(=O)c1cc(C3CC3)on1)C2 [compound 586, N-((1R,3r,5S)-8-((3-((2-aminoethyl)(methyl)amino)propyl)sulfonyl)-8-azabicyclo[3.2.1]octan-3-yl)-5-cyclopropylisoxazole-3-carboxamide]",10.7 nM,263 nM
"C[C@H]1C[C@@H](NC(=O)c2cc(C3CC3)on2)CCN1S(=O)(=O)N1CC2CC(C1)N2 [compound 588, N-((2S,4S)-1-((3,6-diazabicyclo[3.1.1]heptan-3-yl)sulfonyl)-2-methylpiperidin-4-yl)-5-cyclopropylisoxazole-3-carboxamide]",10.8 nM,151 nM
"CN(C)CCNCCCS(=O)(=O)N1[C@@H]2CC[C@H]1C[C@@H](NC(=O)c1cc(C3CC3)on1)C2 [compound 590, 5-cyclopropyl-N-((1R,3r,5S)-8-((3-((2-(dimethylamino)ethyl)amino)propyl)sulfonyl)-8-azabicyclo[3.2.1]octan-3-yl)isoxazole-3-carboxamide]",10.9 nM,175 nM
"CNCCCS(=O)(=O)N1[C@@H]2CC[C@H]1C[C@@H](NC(=O)c1cc(C3CC3)on1)C2 [compound 591, 5-cyclopropyl-N-((1R,3r,5S)-8-((3-(methylamino)propyl)sulfonyl)-8-azabicyclo[3.2.1]octan-3-yl)isoxazole-3-carboxamide]",11.1 nM,150 nM
"CN(C)CCCS(=O)(=O)N1[C@@H]2CC[C@H]1C[C@@H](NC(=O)c1cc(C3CC3)on1)C2 [compound 593, 5-cyclopropyl-N-((1R,3r,5S)-8-((3-(dimethylamino)propyl)sulfonyl)-8-azabicyclo[3.2.1]octan-3-yl)isoxazole-3-carboxamide]",11.8 nM,147 nM
"O=C(N[C@H]1C[C@H]2CC[C@@H](C1)N2S(=O)(=O)NC1CC2(CNC2)C1)c1cc(C2CC2)on1 [compound 594, N-((1R,3r,5S)-8-(N-(2-azaspiro[3.3]heptan-6-yl)sulfamoyl)-8-azabicyclo[3.2.1]octan-3-yl)-5-cyclopropylisoxazole-3-carboxamide]",12 nM,669 nM
"NCCNCCS(=O)(=O)N1[C@@H]2CC[C@H]1C[C@@H](NC(=O)c1cc(C3CC3)on1)C2 [compound 596, N-((1R,3r,5S)-8-((2-((2-aminoethyl)amino)ethyl)sulfonyl)-8-azabicyclo[3.2.1]octan-3-yl)-5-cyclopropylisoxazole-3-carboxamide]",12.8 nM,379 nM

# Further lines, results first:
IC50 (SMYD3 [1]),IC50 (SMYD3 [2]),Compound
9.2 nM,134 nM,"C[C@H]1C[C@@H](NC(=O)c2cc(C3CC3)on2)CCN1S(=O)(=O)N1CC2CCC1CN2 (stereo partly drawn) [compound 577, N-((2S,4S)-1-((2,5-diazabicyclo[2.2.2]octan-2-yl)sulfonyl)-2-methylpiperidin-4-yl)-5-cyclopropylisoxazole-3-carboxamide]"
9.4 nM,289 nM,"C[C@H]1C[C@@H](NC(=O)c2cc(C3CC3)on2)CCN1S(=O)(=O)CCCNCc1ccc2ccccc2c1 [compound 578, 5-cyclopropyl-N-((2S,4S)-2-methyl-1-((3-((naphthalen-2-ylmethyl)amino)propyl)sulfonyl)piperidin-4-yl)isoxazole-3-carboxamide]"
9.5 nM,587 nM,"C[C@@H]1C[C@H](NC(=O)c2cc(C3CC3)on2)CCN1S(=O)(=O)CC1CCN(CCN2CCCCC2)CC1 [compound 579, 5-cyclopropyl-N-((2R,4R)-2-methyl-1-(((1-(2-(piperidin-1-yl)ethyl)piperidin-4-yl)methyl)sulfonyl)piperidin-4-yl)isoxazole-3-carboxamide]"
10.1 nM,143 nM,"CC(C)NC1CCN(S(=O)(=O)N2CC[C@H](NC(=O)c3cc(C4CC4)on3)C[C@@H]2C)CC1 [compound 581, 5-cyclopropyl-N-((2S,4S)-1-((4-(isopropylamino)piperidin-1-yl)sulfonyl)-2-methylpiperidin-4-yl)isoxazole-3-carboxamide]"
10.4 nM,234 nM,"COCCN1CCC(CS(=O)(=O)N2CC[C@@H](NC(=O)c3cc(C4CC4)on3)C[C@H]2C)CC1 [compound 583, 5-cyclopropyl-N-((2R,4R)-1-(((1-(2-methoxyethyl)piperidin-4-yl)methyl)sulfonyl)-2-methylpiperidin-4-yl)isoxazole-3-carboxamide]"
10.5 nM,159 nM,"CC[C@H]1CN(S(=O)(=O)N2CC[C@H](NC(=O)c3cc(C4CC4)on3)C[C@@H]2C)CCN1 [compound 584, 5-cyclopropyl-N-((2S,4S)-1-(((S)-3-ethylpiperazin-1-yl)sulfonyl)-2-methylpiperidin-4-yl)isoxazole-3-carboxamide]"
10.6 nM,186 nM,"C[C@H]1C[C@@H](NC(=O)c2cc(C3CC3)on2)CCN1S(=O)(=O)N1CCCNCC1 [compound 585, N-((2S,4S)-1-((1,4-diazepan-1-yl)sulfonyl)-2-methylpiperidin-4-yl)-5-cyclopropylisoxazole-3-carboxamide]"
10.7 nM,311 nM,"C[C@H]1C[C@@H](NC(=O)c2cc(C3CC3)on2)CCN1S(=O)(=O)CC1CCN(CCN2CCOCC2)CC1 [compound 587, 5-cyclopropyl-N-((2S,4S)-2-methyl-1-(((1-(2-morpholinoethyl)piperidin-4-yl)methyl)sulfonyl)piperidin-4-yl)isoxazole-3-carboxamide]"
10.9 nM,152 nM,"C[C@@H]1C[C@H](NC(=O)c2cc(C3CC3)on2)CCN1S(=O)(=O)CC1CCN(CCO)CC1 [compound 589, 5-cyclopropyl-N-((2R,4R)-1-(((1-(2-hydroxyethyl)piperidin-4-yl)methyl)sulfonyl)-2-methylpiperidin-4-yl)isoxazole-3-carboxamide]"
11.6 nM,106 nM,"C[C@H]1C[C@@H](NC(=O)c2cc(C3CC3)on2)CCN1S(=O)(=O)N1C[C@@H]2C[C@H]1CN2C [compound 592, 5-cyclopropyl-N-((2S,4S)-2-methyl-1-(((1S,4S)-5-methyl-2,5-diazabicyclo[2.2.1]heptan-2-yl)sulfonyl)piperidin-4-yl)isoxazole-3-carboxamide]"
12.6 nM,77.8 nM,"C[C@@H]1CN(S(=O)(=O)N2CCNCC2)[C@H](C)C[C@@H]1NC(=O)c1cc(C2CC2)on1 [compound 595, 5-cyclopropyl-N-((2R,4S,5R)-2,5-dimethyl-1-(piperazin-1-ylsulfonyl)piperidin-4-yl)isoxazole-3-carboxamide]"
